In paper PMC10046377, “Inhibitors of the Oncogenic PA2G4-MYCN Protein-Protein Interface” (Cancers, 2023):

Assays:
[1] = target: T1, PA2G4 protein (Homo sapiens, UniProt Q9UQ80); assay: Differential scanning fluorimetry of PA2G4; assay type: binding; set-up: made in house; host or cells: BL21 (DE3) E. coli; conditions: relative to DMSO control
T1 sequence (Q9UQ80 1-394): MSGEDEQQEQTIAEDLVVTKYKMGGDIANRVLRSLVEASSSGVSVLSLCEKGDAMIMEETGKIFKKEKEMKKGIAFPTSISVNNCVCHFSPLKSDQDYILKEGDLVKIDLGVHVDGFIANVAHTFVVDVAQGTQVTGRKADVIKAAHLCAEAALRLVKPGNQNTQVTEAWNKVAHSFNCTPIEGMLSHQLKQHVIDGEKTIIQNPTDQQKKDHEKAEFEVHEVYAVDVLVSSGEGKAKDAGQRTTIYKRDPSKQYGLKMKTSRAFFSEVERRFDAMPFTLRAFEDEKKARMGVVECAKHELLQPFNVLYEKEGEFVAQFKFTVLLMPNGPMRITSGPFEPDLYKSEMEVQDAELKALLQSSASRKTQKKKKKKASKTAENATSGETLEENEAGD
From the text: Seeking a further reduction of toxicity and improvements in physicochemical properties, we conducted a second in silico analogue screen using the structure of #3567. A further 33 compounds were purchased and assayed (Supplementary Figure S1C).

[2] = test system: normal human myofibroblasts; assay: Toxicity for normal human myofibroblasts relative to WS6; assay type: cell-based
Method: Cell viability was determined by the Alamar Blue assay (75 mg resazurin, 12.5 mg methylene blue, 164.5 mg potassium hexacyanoferrate (III), 211 mg potassium hexacyanoferrate (II) trihydrate in 500 mL of phosphate buffered saline). After 6 h incubation with Alamar Blue, the change of fluorescence was measured by Victor 3 multilabel Plate Reader (Perkin Elmer Australia, Melburne, Australia) at an excitation wavelength of 560 nm and an emission wavelength of 590 nm.
We have shown that the PA2G4 protein increased the half-life of the oncoprotein MYCN through direct binding, and competitive chemical inhibition of this bond by WS6 reduced tumorigenicity both in vitro and in vivo [11]. […] Here, we explored the structure–activity relationship (SAR) of WS6 analogue compounds with the aim to increase efficacy and reduce toxicity. […] The in vitro cytotoxicity of these 14 compounds were measured by cell viability assays using Alamar Blue in MYCN amplified human neuroblastoma (SK-N-BE(2)-C and Kelly) cell lines compared to non-malignant (WI-38, MRC-5) myofibroblast cell lines (Figure 1B,C and Supplementary Figure S1A).

SMILES	melting temperature of PA2G4 (DSF) [1]	fold lower toxicity for normal human myofibroblasts compared to WS6 [2] [fold]
Cc1cccc(Oc2cc(N3CCC(C(=O)NCc4cccc(Br)c4)CC3)ncn2)c1C [#5333]	increased the melting temperature	70
Cc1cccc(Oc2cc(N3CCC(C(=O)N[C@@H](C)CCc4ccccc4)CC3)ncn2)c1C [#5338]	increased the melting temperature	70
